Structures are written as SMILES.

The target of this assay is T1, human DP2 receptor (Homo sapiens, UniProt Q9Y5Y4).
T1 construct: expressed in transfected cells
T1 sequence (Q9Y5Y4 1-395): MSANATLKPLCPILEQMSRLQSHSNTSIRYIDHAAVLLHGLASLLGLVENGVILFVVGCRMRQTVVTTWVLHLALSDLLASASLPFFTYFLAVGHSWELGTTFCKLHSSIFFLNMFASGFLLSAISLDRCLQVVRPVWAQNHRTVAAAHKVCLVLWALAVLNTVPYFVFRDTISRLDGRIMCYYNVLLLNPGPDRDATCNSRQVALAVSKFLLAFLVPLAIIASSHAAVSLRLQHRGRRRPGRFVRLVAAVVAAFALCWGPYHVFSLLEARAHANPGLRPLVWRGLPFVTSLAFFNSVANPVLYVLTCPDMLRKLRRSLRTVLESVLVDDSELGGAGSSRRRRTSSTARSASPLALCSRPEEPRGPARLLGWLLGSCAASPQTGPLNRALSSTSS
The assay is described as follows: DP2/CRTH2 binding assay (radioligand binding using [3H]PGD2). The following applies: [3H]PGD2, membranes of HEK293 cells stably expressing recombinant human DP2; read-out: hDP2 binding. The protocol:
The ability of a compound to bind to the human DP2 receptor is assessed via a radioligand binding assay using [^3H]PGD2. HEK293 cells stably expressing recombinant human DP2 are resuspended in 10 mM Hepes, 7.4 containing 1 mM DTT, lysed and centrifuged at 75,000×g to pellet the membranes. The membranes are resuspended in 10 mM Hepes, 7.4 containing 1 mM DTT and 10% glycerol to approximately 5 mg protein/ml. Membranes (2-10 μg protein/well) are incubated in 96-well plates with 1 nM [^3H]PGD2 and test compound in Assay Buffer (50 mM Hepes, 10 mM MnCl2, 1 mM EDTA, plus or minus 0.2% human serum albumin, pH 7.4) for 60 minutes at room temperature. The reactions are terminated by rapid filtration through Whatman GF/C glass fibre filter plates. The filter plates were pre-soaked in 0.33% polythylenimine for 30 minutes at room temperature then washed in Wash Buffer (50 mM Hepes, 0.5 M NaCl pH 7.4) prior to harvesting. After harvesting, the filter plates are washed 3 times with 1 ml cold Wash Buffer then dried. Scintillant is then added to the plates and the radioactivity retained on the filters is determined on a Packard TopCount (Perkin Elmer). Specific binding is determined as total radioactive binding minus non-specific binding in the presence of 10 μM PGD2. IC50s were determined using GraphPad prism analysis of drug titration curves.
Turning to `COc1ccc(CC(=O)O)cc1-c1ccc(C(F)(F)F)cc1CN1CCOC1=O` [Compound 1-1, [6-Methoxy-2′-(2-oxo-oxazolidin-3-ylmethyl)-4′-trifluoromethyl-biphenyl-3-yl]-acetic acid], the IC50 was < 300 nM.
The figure for `COc1ccc(-c2ccc(C(F)(F)F)cc2CN2CCOC2=O)cc1CC(=O)O` [Compound 1-2, [4-Methoxy-2′-(2-oxo-oxazolidin-3-ylmethyl)-4′-trifluoromethyl-biphenyl-3-yl]-acetic acid] is < 300 nM; for `COc1ccc(CC(=O)O)cc1-c1ccccc1CN1C(=O)O[C@H](c2ccccc2)[C@@H]1C` [Compound 1-3, [6-Methoxy-2′-((4S,5R)-4-methyl-2-oxo-5-phenyl-oxazolidin-3-ylmethyl)-biphenyl-3-yl]-acetic acid] it is 300 to 1000 nM; for `COc1ccc(CC(=O)O)cc1-c1ccc(F)cc1CN1C(=O)O[C@H](c2ccccc2)[C@@H]1C` [Compound 1-4, [4′-Fluoro-6-methoxy-2′-((4S,5R)-4-methyl-2-oxo-5-phenyl-oxazolidin-3-ylmethyl)-biphenyl-3-yl]-acetic acid] it is < 300 nM.
As for `COc1ccc(-c2cc(CC(=O)O)ccc2OC)c(CN2C(=O)O[C@H](c3ccccc3)[C@@H]2C)c1` [Compound 1-5, [6,4′-Dimethoxy-2′-((4S,5R)-4-methyl-2-oxo-5-phenyl-oxazolidin-3-ylmethyl)-biphenyl-3-yl]-acetic acid], the IC50 was > 1000 nM.
Consider `C[C@H]1[C@@H](c2ccccc2)OC(=O)N1Cc1cc(C(F)(F)F)ccc1-c1cccc(CC(=O)O)c1` [Compound 1-6, [2′-((4S,5R)-4-Methyl-2-oxo-5-phenyl-oxazolidin-3-ylmethyl)-4′-trifluoromethyl-biphenyl-3-yl]-acetic acid], for which the IC50 lay within 300 to 1000 nM.
On to `C[C@H]1[C@@H](c2ccccc2)OC(=O)N1Cc1cc(C(F)(F)F)ccc1-c1ccc(F)c(CC(=O)O)c1` [Compound 1-7, [4-Fluoro-2′-((4S,5R)-4-methyl-2-oxo-5-phenyl-oxazolidin-3-ylmethyl)-4′-trifluoromethyl-biphenyl-3-yl]-acetic acid], for which the IC50 lay in the range of 300 to 1000 nM.
Regarding `COc1ccc(-c2ccc(C(F)(F)F)cc2CN2C(=O)O[C@H](c3ccccc3)[C@@H]2C)cc1CC(=O)O` [Compound 1-8, [4-Methoxy-2′-((4S,5R)-4-methyl-2-oxo-5-phenyl-oxazolidin-3-ylmethyl)-4′-trifluoromethyl-biphenyl-3-yl]-acetic acid], the IC50 was < 300 nM.
For `C[C@H]1[C@@H](c2ccccc2)OC(=O)N1Cc1cc(C(F)(F)F)ccc1-c1cc(CC(=O)O)ccc1F` [Compound 1-9, [6-Fluoro-2′-((4S,5R)-4-methyl-2-oxo-5-phenyl-oxazolidin-3-ylmethyl)-4′-trifluoromethyl-biphenyl-3-yl]-acetic acid], the IC50 was < 300 nM.
Regarding `COc1ccc(CC(=O)O)cc1-c1ccc(C(F)(F)F)cc1CN1C(=O)O[C@H](c2ccccc2)[C@@H]1C` [Compound 1-10, [6-Methoxy-2′-((4S,5R)-4-methyl-2-oxo-5-phenyl-oxazolidin-3-ylmethyl)-4′-trifluoromethyl-biphenyl-3-yl]-acetic acid], the IC50 was < 300 nM.
Consider `COc1ccc(CC(=O)O)cc1-c1ccc(C(F)(F)F)cc1CN1C(=O)O[C@@H](c2ccccc2)[C@H]1C` [Compound 1-11, [6-Methoxy-2′-((4R,5S)-4-methyl-2-oxo-5-phenyl-oxazolidin-3-ylmethyl)-4′-trifluoromethyl-biphenyl-3-yl]-acetic acid], for which the IC50 is > 1000 nM.
In the case of `COc1ccc(C(C)C(=O)O)cc1-c1ccc(C(F)(F)F)cc1CN1C(=O)O[C@H](c2ccccc2)[C@@H]1C` (stereo partly drawn) [Compound 1-12, 2-[6-Methoxy-2′-((4S,5R)-4-methyl-2-oxo-5-phenyl-oxazolidin-3-ylmethyl)-4′-trifluoromethyl-biphenyl-3-yl]-propionic acid], the IC50 was < 300 nM.
Take `COc1ccc(CC(=O)O)cc1-c1ccc(C(F)(F)F)cc1CN1C(=O)O[C@H](c2cc(C(F)(F)F)cc(C(F)(F)F)c2)[C@@H]1C` [Compound 1-13, {2′-[(4S,5R)-5-(3,5-Bis-trifluoromethyl-phenyl)-4-methyl-2-oxo-oxazolidin-3-ylmethyl]-6-methoxy-4′-trifluoromethyl-biphenyl-3-yl}-acetic acid]: the IC50 is < 300 nM.
Then `CCOc1ccc(CC(=O)O)cc1-c1ccc(C(F)(F)F)cc1CN1C(=O)O[C@H](c2ccccc2)[C@@H]1C` [Compound 1-14, [6-Ethoxy-2′-((4S,5R)-4-methyl-2-oxo-5-phenyl-oxazolidin-3-ylmethyl)-4′-trifluoromethyl-biphenyl-3-yl]-acetic acid], with < 300 nM.
With `C[C@H]1[C@@H](c2ccccc2)OC(=O)N1Cc1cc(C(F)(F)F)ccc1-c1cc(CC(=O)O)ccc1OCC1CC1` [Compound 1-15, [6-Cyclopropylmethoxy-2′-((4S,5R)-4-methyl-2-oxo-5-phenyl-oxazolidin-3-ylmethyl)-4′-trifluoromethyl-biphenyl-3-yl]-acetic acid], the IC50 is < 300 nM.
The figure for `C[C@H]1[C@@H](c2ccccc2)OC(=O)N1Cc1cc(C(F)(F)F)ccc1-c1cc(CC(=O)O)ccc1OCC(=O)O` [Compound 1-16, [6-Carboxymethoxy-2′-((4S,5R)-4-methyl-2-oxo-5-phenyl-oxazolidin-3-ylmethyl)-4′-trifluoromethyl-biphenyl-3-yl]-acetic acid] is 300 to 1000 nM.
In the case of `C[C@H]1[C@@H](c2ccccc2)OC(=O)N1Cc1cc(C(F)(F)F)ccc1-c1cc(CC(=O)O)ccc1OCc1ccccc1` [Compound 1-17, [6-Benzyloxy-2′-((4S,5R)-4-methyl-2-oxo-5-phenyl-oxazolidin-3-ylmethyl)-4′-trifluoromethyl-biphenyl-3-yl]-acetic acid], the IC50 was < 300 nM.
In the case of `C[C@H]1[C@@H](c2ccccc2)OC(=O)N1Cc1cc(C(F)(F)F)ccc1-c1cc(CC(=O)O)ccc1OCc1ccc(Cl)cc1` [Compound 1-18, [6-(4-Chloro-benzyloxy)-2′-((4S,5R)-4-methyl-2-oxo-5-phenyl-oxazolidin-3-ylmethyl)-4′-trifluoromethyl-biphenyl-3-yl]-acetic acid], the IC50 was < 300 nM.
On to `C[C@H]1[C@@H](c2ccccc2)OC(=O)N1Cc1cc(C(F)(F)F)ccc1-c1cc(CC(=O)O)ccc1-c1ccccc1` [Compound 1-19, [2″-((4S,5R)-4-Methyl-2-oxo-5-phenyl-oxazolidin-3-ylmethyl)-4″-trifluoromethyl-[1,1′;2′,1″]terphenyl-4′-yl]-acetic acid], for which the IC50 was < 300 nM.
Consider `C[C@H]1[C@@H](c2ccccc2)OC(=O)N1Cc1cc(C(F)(F)F)ccc1-c1cc(CC(=O)O)ccc1-c1cccnc1` [Compound 1-20, [2′-((4S,5R)-4-Methyl-2-oxo-5-phenyl-oxazolidin-3-ylmethyl)-6-pyridin-3-yl-4′-trifluoromethyl-biphenyl-3-yl]-acetic acid], for which the IC50 was < 300 nM.
On to `C[C@H]1[C@@H](c2ccccc2)OC(=O)N1Cc1cc(C(F)(F)F)ccc1-c1cc(CC(=O)O)ccc1-c1cnn(C)c1` [Compound 1-21, [2′-((4S,5R)-4-Methyl-2-oxo-5-phenyl-oxazolidin-3-ylmethyl)-6-(1-methyl-1H-pyrazol-4-yl)-4′-trifluoromethyl-biphenyl-3-yl]-acetic acid], for which the IC50 lay within 300 to 1000 nM.
Regarding `COc1ccc(CC(=O)O)cc1-c1ccc(C(F)(F)F)cc1CN1C(=O)NC(C)(c2ccccc2)C1=O` (stereo not shown) [Compound 2-1, [6-Methoxy-2′-(4-methyl-2,5-dioxo-4-phenyl-imidazolidin-1-ylmethyl)-4′-trifluoromethyl-biphenyl-3-yl]-acetic acid], the IC50 was > 1000 nM.
The figure for `COc1ccc(CC(=O)O)cc1-c1ccc(C(F)(F)F)cc1CN1C(=O)N(CC(=O)O)C(C)(c2ccccc2)C1=O` (stereo not shown) [Compound 2-2, [2′-(3-Carboxymethyl-4-methyl-2,5-dioxo-4-phenyl-imidazolidin-1-ylmethyl)-6-methoxy-4′-trifluoromethyl-biphenyl-3-yl]-acetic acid] is > 1000 nM; for `COc1ccc(CC(=O)O)cc1-c1ccc(C(F)(F)F)cc1CN1CCN=C1C` [Compound 3-1, [6-Methoxy-2′-(2-methyl-4,5-dihydro-imidazol-1-ylmethyl)-4′-trifluoromethyl-biphenyl-3-yl]-acetic acid] it is > 1000 nM.
With `O=C(O)CCn1c2c(c3ccccc31)C[C@H](NS(=O)(=O)c1ccc(F)cc1)CC2` [Ramatroban, reference compound], the IC50 fell in the range of 300 to 1000 nM.

The values above are taken from US8497381B2, “Antagonists of prostaglandin D2 receptors” (Panmira Pharmaceuticals, LLC, priority 2008, dated 2013).
